Laboratory results from the NIST ThermoML archive (doi:10.1016/j.fluid.2014.10.004).

How the values were obtained:
[1] = refractive index (Na D-line) (dimensionless); xn = mol fraction of the nth substance listed; details: 101.3 kPa, Liquid, Standard Abbe refractometry
[2] = xn = mol fraction of the nth substance listed; details: 101.3 kPa, Liquid, Sing-around technique in a fixed-path interferometer

CC(Cl)(Cl)Cl [1,1,1-trichloroethane] + C[N+](=O)[O-]
Details | refractive index, 298.15 K | refractive index, 308.15 K | refractive index, 318.15 K | speed of sound, 298.15 K [m/s] | speed of sound, 308.15 K [m/s] | speed of sound, 318.15 K [m/s]
[1], x1 = 0.0921 | 1.38777 | 1.38231 | 1.37702 | – | – | –
[1], x1 = 0.1727 | 1.39427 | 1.38809 | 1.38239 | – | – | –
[1], x1 = 0.2614 | 1.4006 | 1.39442 | 1.3887 | – | – | –
[1], x1 = 0.3951 | 1.40894 | 1.40268 | 1.39695 | – | – | –
[1], x1 = 0.4862 | 1.41396 | 1.40768 | 1.40208 | – | – | –
[1], x1 = 0.5904 | 1.41903 | 1.41302 | 1.40727 | – | – | –
[1], x1 = 0.7066 | 1.42412 | 1.41834 | 1.41249 | – | – | –
[1], x1 = 0.8358 | 1.42923 | 1.42338 | 1.41753 | – | – | –
[1], x1 = 0.9012 | 1.43156 | 1.42575 | 1.41987 | – | – | –
[1], x1 = 1 | 1.43492 | 1.42908 | 1.42311 | – | – | –
[2], x1 = 0.0921 | – | – | – | 1258.6 | 1219.9 | 1181.4
[2], x1 = 0.1727 | – | – | – | 1211.5 | 1173.7 | 1136
[2], x1 = 0.2614 | – | – | – | 1166.3 | 1129.1 | 1092.1
[2], x1 = 0.3951 | – | – | – | 1109.8 | 1073.5 | 1037.3
[2], x1 = 0.4862 | – | – | – | 1079.3 | 1043.4 | 1007.6
[2], x1 = 0.5904 | – | – | – | 1048.7 | 1013.2 | 977.89
[2], x1 = 0.7066 | – | – | – | 1019.3 | 984.72 | 949.76
[2], x1 = 0.8358 | – | – | – | 992.76 | 957.84 | 923.21
[2], x1 = 0.9012 | – | – | – | 980.43 | 945.74 | 911.39
[2], x1 = 1 | – | – | – | 962.94 | 928.68 | 894.71

ClC(Cl)C(Cl)Cl [1,1,2,2-tetrachloroethane] + C[N+](=O)[O-]
Details | refractive index, 298.15 K | refractive index, 308.15 K | refractive index, 318.15 K | speed of sound, 298.15 K [m/s] | speed of sound, 308.15 K [m/s] | speed of sound, 318.15 K [m/s]
[1], x1 = 0.0711 | 1.39391 | 1.3893 | 1.38479 | – | – | –
[1], x1 = 0.1888 | 1.41442 | 1.4099 | 1.40582 | – | – | –
[1], x1 = 0.2563 | 1.42485 | 1.42025 | 1.4162 | – | – | –
[1], x1 = 0.3464 | 1.43683 | 1.43222 | 1.42805 | – | – | –
[1], x1 = 0.4341 | 1.44721 | 1.4425 | 1.43807 | – | – | –
[1], x1 = 0.5431 | 1.45848 | 1.45366 | 1.44909 | – | – | –
[1], x1 = 0.6654 | 1.46937 | 1.46448 | 1.4596 | – | – | –
[1], x1 = 0.8211 | 1.48094 | 1.47589 | 1.47087 | – | – | –
[1], x1 = 0.9285 | 1.48772 | 1.48262 | 1.47752 | – | – | –
[1], x1 = 1 | 1.49174 | 1.48654 | 1.48137 | – | – | –
[2], x1 = 0.0711 | – | – | – | 1293.1 | 1254.8 | 1216.6
[2], x1 = 0.1888 | – | – | – | 1257.7 | 1220.8 | 1184.5
[2], x1 = 0.2563 | – | – | – | 1241.8 | 1205.8 | 1170
[2], x1 = 0.3464 | – | – | – | 1224.1 | 1189.1 | 1154.2
[2], x1 = 0.4341 | – | – | – | 1209.8 | 1175.4 | 1141.1
[2], x1 = 0.5431 | – | – | – | 1194.8 | 1161.1 | 1127.6
[2], x1 = 0.6654 | – | – | – | 1180.7 | 1147.6 | 1114.7
[2], x1 = 0.8211 | – | – | – | 1165.3 | 1133 | 1100.8
[2], x1 = 0.9285 | – | – | – | 1156.2 | 1124.2 | 1092.3
[2], x1 = 1 | – | – | – | 1150.6 | 1118.7 | 1087

ClCCCl [1,2-dichloroethane] + C[N+](=O)[O-]
x1 = 1
Details | refractive index, 298.15 K | refractive index, 308.15 K | refractive index, 318.15 K | speed of sound, 298.15 K [m/s] | speed of sound, 308.15 K [m/s] | speed of sound, 318.15 K [m/s]
[1] | 1.44206 | 1.43661 | 1.43109 | – | – | –
[2] | – | – | – | 1194.4 | 1156.1 | 1117.8

ClCCCCl [1,3-dichloropropane] + C[N+](=O)[O-]
Details | refractive index, 298.15 K | refractive index, 308.15 K | refractive index, 318.15 K | speed of sound, 298.15 K [m/s] | speed of sound, 308.15 K [m/s] | speed of sound, 318.15 K [m/s]
[1], x1 = 0.0878 | 1.38808 | 1.38325 | 1.37861 | – | – | –
[1], x1 = 0.1939 | 1.39757 | 1.39278 | 1.38807 | – | – | –
[1], x1 = 0.2938 | 1.40567 | 1.40095 | 1.39632 | – | – | –
[1], x1 = 0.3998 | 1.41335 | 1.40869 | 1.40422 | – | – | –
[1], x1 = 0.5028 | 1.42017 | 1.41551 | 1.41092 | – | – | –
[1], x1 = 0.6154 | 1.42699 | 1.42236 | 1.41782 | – | – | –
[1], x1 = 0.7207 | 1.43278 | 1.42826 | 1.4234 | – | – | –
[1], x1 = 0.8326 | 1.43844 | 1.43358 | 1.42879 | – | – | –
[1], x1 = 0.9404 | 1.44348 | 1.43846 | 1.43349 | – | – | –
[1], x1 = 1 | 1.44617 | 1.44123 | 1.43614 | – | – | –
[2], x1 = 0.0878 | – | – | – | 1303 | 1264 | 1225
[2], x1 = 0.1939 | – | – | – | 1285.9 | 1247.3 | 1208.9
[2], x1 = 0.2938 | – | – | – | 1273.6 | 1235.4 | 1197.3
[2], x1 = 0.3998 | – | – | – | 1263.5 | 1225.6 | 1187.8
[2], x1 = 0.5028 | – | – | – | 1255.9 | 1218.2 | 1180.7
[2], x1 = 0.6154 | – | – | – | 1249.4 | 1212 | 1174.8
[2], x1 = 0.7207 | – | – | – | 1244.7 | 1207.5 | 1170.5
[2], x1 = 0.8326 | – | – | – | 1240.8 | 1203.8 | 1167
[2], x1 = 0.9404 | – | – | – | 1237.9 | 1201 | 1164.4
[2], x1 = 1 | – | – | – | 1236.5 | 1199.7 | 1163.2
